One assay has as its target T1, Human M4 (Homo sapiens, UniProt P08173).
T1 construct: expressed in transfected cells
T1 sequence (P08173 1-479): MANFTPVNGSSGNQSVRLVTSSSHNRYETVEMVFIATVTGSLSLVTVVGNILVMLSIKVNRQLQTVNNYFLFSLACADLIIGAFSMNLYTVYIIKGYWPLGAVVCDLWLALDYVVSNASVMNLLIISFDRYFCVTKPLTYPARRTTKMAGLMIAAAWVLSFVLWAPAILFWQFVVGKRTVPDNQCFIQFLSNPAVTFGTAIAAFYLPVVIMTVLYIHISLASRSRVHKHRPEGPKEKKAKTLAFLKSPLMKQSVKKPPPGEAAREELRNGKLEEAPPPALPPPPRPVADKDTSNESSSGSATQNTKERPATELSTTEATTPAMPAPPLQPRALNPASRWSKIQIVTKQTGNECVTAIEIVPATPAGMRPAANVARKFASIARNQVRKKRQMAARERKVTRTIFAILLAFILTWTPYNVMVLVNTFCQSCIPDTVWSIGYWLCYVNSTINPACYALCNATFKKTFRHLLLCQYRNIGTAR
The assay is described as follows: mAChR M4 cell-based functional assay (calcium flux, potentiation of EC20 acetylcholine response). The conditions noted are these: for Emax at 30 µM: % ACh maximum at 30 μM, human M4; for EC50: CHO-K1 cells with human M4 and Gqi5, increase in EC20 acetylcholine response. Background: Calcium assays in cells follow changes in intracellular calcium, usually with a dye or a luminescent sensor.

The test system of another assay is male Sprague-Dawley rats. Description: Reversal of amphetamine-induced hyperlocomotion in rats. The conditions noted are these: 10 mg/kg p.o. Format: in vivo, rat. How it is done:
Drugs: d-Amphetamine hemisulfate was obtained from Sigma (St. Louis, Mo.). Salt-correction was used to determine the correct amount of the d-amphetamine hemisulfate form in milligrams to add to sterile water in order to yield a 0.75 mg/mL solution, which would be dosed at 1 mL/kg body weight of each animal. […] The solutions were formulated so that animals were injected with a volume equal to 10 mL/kg body weight for all compounds. The appropriate amount according to the dosage was mixed in 10% Tween 80 (Sigma) 90% sterile water. The mixtures were then vortexed and stored in a 39° C. sonication bath for 1 hour, until in a microsuspension (except for the highest dose, which was a suspension).
Animals: Male Sprague-Dawley rats weighing 239-300 grams and averaging 265 g (Harlan, Inc., Indianapolis, Ind.) were used. They were housed in the animal care facility certified by the American Association for the Accreditation of Laboratory Animal Care (AALAC) under a 12-hour light/dark cycle (lights on: 6 a.m.; lights off: 6 p.m.) and had free access to food and water. The animals used in this experiment were food-deprived the evening before experimentation for oral dosing of compound/vehicle. The experimental protocols performed during the light cycle were approved by the Institutional Animals Care and Use Committee of Vanderbilt University and conformed to the guidelines established by the National Research Council Guide for the Care and Use of Laboratory Animals.
Amphetamine-induced Hyperlocomotion: Male Harlan Sprague Dawley rats were habituated in Smart Open Field locomotor activity test chambers (Hamilton-Kinder, San Diego, Calif.) with 16×16 photo beams to automatically record locomotor activity. […] They were monitored for an additional 30 minutes and then injected subcutaneously with vehicle or […] amphetamine. Animals were then monitored for an additional 60 minutes, for a total of 120 minutes. Data were expressed as changes in ambulation defined as total number of beam breaks per 5 minute interval. […]
Data Analysis: Behavioral data were analyzed using a two-way ANOVA with main effects of treatment and time. […] In addition, the total number of beam breaks from the amphetamine administration (65 min) to the end of the study (120 min) was calculated and graphed. Percent Reversal was calculated as follows using Microsoft Excel: In each animal, total ambulation from t=65 to t=120 was summed. The mean of each sum was calculated in the VAMP group. Then, for each animal, Percent Reversal was calculated with the following formula: Percent Reversal=100−{[(total ambulation in each animal from t=65 to t=120)/(mean of each sum from t=65 to t=120 in VAMP group)]*100}. The mean Percent Reversal, as well as the standard error, was calculated for each dose group using GraphPad Prism V5.04.

The term Emax denotes the greatest response seen or fitted, relative to the assay's reference. In general, EC50 refers to the concentration needed to bring the measured effect to its halfway point.

Protocol for Human M4: Human M4 cDNA, along with the chimeric G protein Gqi5, were transfected into Chinese hamster ovary (CHO-K1) cells purchased from the American Type Culture Collection using commercially available Lipofectamine 2000 transfection reagent (Dalby, B. et al., Methods (2004) 33(2), 95-103). hM4-Gqi5 cells were grown in Ham's F-12 medium containing 10% heat-inactivated fetal bovine serum (FBS), 20 mM HEPES, 50 μg/mL G418 sulfate (CAS #108321-42-2), and 500 μg/mL Hygromycin B. rM4-Gqi5 cells were grown in DMEM containing 10% heat-inactivated FBS, 20 mM HEPES, 400 μg/mL G418 sulfate, and 500 μg/mL Hygromycin B.
For high throughput measurement of agonist-evoked increases in intracellular calcium, CHO-K1 cells stably expressing muscarinic receptors were plated in growth medium lacking G418 sulfate and hygromycin at 15,000 cells/20 μL/well in Greiner 384-well black-walled, tissue culture (TC)-treated, clear-bottom plates (VWR). Cells were incubated overnight at 37° C. and 5% CO2. The next day, cells were washed using an ELX 405 (BioTek) with assay buffer; the final volume was then aspirated to 20 μL. […] Dye was removed by washing with the ELX 405 and the final volume was aspirated to 20 μL. Compound master plates were formatted in an 11 point concentration-response curve (CRC) format (1:3 dilutions) in 100% DMSO with a starting concentration of 10 mM using a BRAVO liquid handler (Agilent). Test compound CRCs were then transferred to daughter plates (240 nL) using the Echo acoustic plate reformatter (Labcyte, Sunnyvale, Calif.) and then diluted into assay buffer (40 μL) to a 2× stock using a Thermo Fisher Combi (Thermo Fisher Scientific, Waltham, Mass.).
Calcium flux was measured using the Functional Drug Screening System (FDSS) 6000 or 7000 (Hamamatsu Corporation, Tokyo, Japan) as an increase in the fluorescent static ratio. Compounds were applied to cells (20 μL, 2×) using the automated system of the FDSS at 2-4 seconds into the protocol and the data were collected at 1 Hz. At 144 seconds, 10 μL of an EC20 concentration of the muscarinic receptor agonist acetylcholine was added (5×), followed by the addition of 12 μL of an EC80 concentration of acetylcholine at the 230 second time point (5×). Agonist activity was analyzed as a concentration-dependent increase in calcium mobilization upon compound addition. Positive allosteric modulator activity was analyzed as a concentration-dependent increase in the EC20 acetylcholine response. […] Antagonist activity was analyzed as a concentration-dependent decrease in the EC80 acetylcholine response. Concentration-response curves were generated using a four-parameter logistical equation in XLFit curve fitting software (IDBS, Bridgewater, N.J.) for Excel (Microsoft, Redmond, Wash.) or Prism (GraphPad Software, Inc., San Diego, Calif.).

Consider `CCc1nc(C)c2c(n1)sc1c(NCc3ccc(OC)c(F)c3)nccc12` [Compound 33, 2-ethyl-N-[(3-fluoro-4-methoxy-phenyl)methyl]-4-methyl-pyrido[4,5]thieno[1,2-b]pyrimidin-8-amine], for which, at Human M4, the Emax at 30 µM turned out to be 87.4% and the EC50 came to 1330 nM.
The like results for `CCc1nc(C)c2c(n1)sc1c(NCc3ccc(C(C)(C)O)cc3)nccc12` [Compound 34, 2-[4-[[(2-ethyl-4-methyl-pyrido[4,5]thieno[1,2-b]pyrimidin-8-yl)amino]methyl]phenyl]propan-2-ol] were, in that order, 88.1% and 601 nM.
The corresponding values for `CCc1nc(C)c2c(n1)sc1c(N3CCC(F)(F)C3)nccc12` [Compound 35, 8-(3,3-difluoropyrrolidin-1-yl)-2-ethyl-4-methyl-pyrido[4,5]thieno[1,2-b]pyrimidine] are 96.9% and 263 nM.
The corresponding values for `Cc1nc(CC(C)C)nc2sc3c(NCc4ccc(C(C)(C)O)cc4)nccc3c12` [Compound 36, 2-[4-[[(2-isobutyl-4-methyl-pyrido[4,5]thieno[1,2-b]pyrimidin-8-yl)amino]methyl]phenyl]propan-2-ol] are 66.4% and > 10000 nM.
Regarding `Cc1nc(C2CC2)nc2sc3c(N4CCCCC4)nccc3c12` [Compound 37, 2-cyclopropyl-4-methyl-8-(1-piperidyl)pyrido[4,5]thieno[1,2-d]pyrimidine], at Human M4, the Emax at 30 µM was 55% and the concentration giving a half-maximal response (EC50) is > 10000 nM.
The corresponding values for `Cc1nc(C2CC2)nc2sc3c(N4CCCC4)nccc3c12` [Compound 38, 2-cyclopropyl-4-methyl-8-pyrrolidin-1-yl-pyrido[4,5]thieno[1,2-d]pyrimidine] are 65% and 1010 nM.
As for `Cc1nc(C2CC2)nc2sc3c(NC4CCCC4)nccc3c12` [Compound 39, N-cyclopentyl-2-cyclopropyl-4-methyl-pyrido[4,5]thieno[1,2-d]pyrimidin-8-amine], at Human M4, the Emax at 30 µM turned out to be 69% and the EC50 turned out to be 1860 nM.
The corresponding values for `Cc1nc(C2CC2)nc2sc3c(N4CCC(F)CC4)nccc3c12` [Compound 40, 2-cyclopropyl-8-(4-fluoro-1-piperidyl)-4-methyl-pyrido[4,5]thieno[1,2-d]pyrimidine] are 73% and 1470 nM.
For the compound `Cc1nc(C)c2c(n1)sc1c(NCc3ccc(C(C)(C)O)cc3)ncc(Cl)c12` [Compound 41, 2-(4-(((5-chloro-2,4-dimethylpyrido[4′,3′:4,5]thieno[2,3-d]pyrimidin-8-yl)amino)methyl)phenyl)propan-2-ol], at Human M4, the maximal response (Emax) at 30 µM came to 91.9% and the 50% effective concentration (EC50) worked out at 3300 nM.
With `Cc1nc(C)c2c(n1)sc1c(NCc3ccc(F)c(F)c3)ncc(Cl)c12` [Compound 43, 5-chloro-N-[(3,4-difluorophenyl)methyl]-2,4-dimethyl-pyrido[4,5]thieno[1,2-b]pyrimidin-8-amine], at Human M4, the Emax at 30 µM is 50.3% and the EC50 worked out at 4350 nM.
The corresponding values for `Cc1nc(C)c2c(n1)sc1c(NC3CCC3)ncc(Cl)c12` [Compound 44, 5-chloro-N-cyclobutyl-2,4-dimethyl-pyrido[4,5]thieno[1,2-b]pyrimidin-8-amine] are 60.1% and 997 nM.
Turning to `Cc1nc(C)c2c(n1)sc1c(NCc3ccc(C(C)(C)O)cc3)ncc(C#N)c12` [Compound 46, 8-((4-(2-hydroxypropan-2-yl)benzyl)amino)-2,4-dimethylpyrido[4′,3′:4,5]thieno[2,3-d]pyrimidine-5-carbonitrile], on Human M4, the Emax at 30 µM was 66.7% and the EC50 is 734 nM.
For `Cc1nnc2sc(C(=O)NCc3ccc(S(=O)(=O)C(F)(F)F)cc3)c(N)c2c1C` [VU0467154-9A, 5-amino-3,4-dimethyl-N-(4-((trifluoromethyl)sulfonyl)benzyl)thieno[2,3-c]pyridazine-6-carboxamide, reference compound], the “percent reversal of amphetamine-induced hyperlocomotion” value in the assay on male Sprague-Dawley rats is reported as 55.0%.

For the origin of these results see patent US10736898B2, “Positive allosteric modulators of the muscarinic acetylcholine receptor M4” (Vanderbilt University, priority 2017, dated 2020).
